± gives the expanded uncertainty stated by the source.
Test: xn = mol fraction of the nth substance listed
Details: 100 kPa, Liquid, Vibrating tube method

CCC(O)CC [3-pentanol] + C[N+](=O)[O-]
Details	mass density [kg/m3]
290.86 K, x1 = 0.414	977.244 ± 2
290.86 K, x1 = 0.615	890.972 ± 1.9
290.95 K, x1 = 0.246	1006.81 ± 2.2
290.95 K, x1 = 0.266	998.292 ± 2.2
290.95 K, x1 = 0.275	994.793 ± 2.2
290.95 K, x1 = 0.3	988.13 ± 2
290.95 K, x1 = 0.325	987.695 ± 2
290.95 K, x1 = 0.338	986.437 ± 2
290.95 K, x1 = 0.363	982.374 ± 2
290.95 K, x1 = 0.382	980.189 ± 2
290.95 K, x1 = 0.407	976.76 ± 2
290.95 K, x1 = 0.414	976.042 ± 2
290.95 K, x1 = 0.486	956.644 ± 2.1
290.95 K, x1 = 0.488	952.742 ± 2.3
290.95 K, x1 = 0.546	927.124 ± 2.2
290.95 K, x1 = 0.573	908.776 ± 2.5
290.95 K, x1 = 0.587	897.749 ± 1.9
290.95 K, x1 = 0.615	890.865 ± 1.9
291.05 K, x1 = 0.246	1006.69 ± 2.2
291.05 K, x1 = 0.275	994.663 ± 2.2
291.05 K, x1 = 0.382	978.765 ± 2
291.05 K, x1 = 0.407	975.346 ± 2
291.05 K, x1 = 0.414	974.647 ± 2
291.05 K, x1 = 0.486	954.019 ± 2.2
291.05 K, x1 = 0.488	945.483 ± 2.1
291.05 K, x1 = 0.573	903.111 ± 2.7
291.06 K, x1 = 0.266	998.167 ± 2.2
291.06 K, x1 = 0.3	986.306 ± 2
291.06 K, x1 = 0.325	985.699 ± 2
291.06 K, x1 = 0.338	984.897 ± 2
291.06 K, x1 = 0.363	981.518 ± 2
291.06 K, x1 = 0.546	924.902 ± 2.2
291.06 K, x1 = 0.587	897.593 ± 1.9
291.06 K, x1 = 0.615	890.758 ± 1.9
291.15 K, x1 = 0.246	1006.56 ± 2.2
291.15 K, x1 = 0.266	998.042 ± 2.2
291.15 K, x1 = 0.275	994.538 ± 2.2
291.15 K, x1 = 0.3	985.201 ± 2.1
291.15 K, x1 = 0.325	983.513 ± 2.1
291.15 K, x1 = 0.338	982.822 ± 2.1
291.15 K, x1 = 0.382	977.024 ± 2
291.15 K, x1 = 0.407	973.664 ± 2
291.15 K, x1 = 0.414	973.001 ± 2
291.15 K, x1 = 0.486	951.113 ± 2.2
291.15 K, x1 = 0.488	947.64 ± 2.1
291.15 K, x1 = 0.573	901.117 ± 1.9
291.15 K, x1 = 0.615	890.652 ± 1.9
291.15 K, x1 = 0.629	887.189 ± 1.9
291.16 K, x1 = 0.363	980.295 ± 2
291.16 K, x1 = 0.546	921.069 ± 2.2
291.16 K, x1 = 0.587	897.497 ± 1.9
291.25 K, x1 = 0.246	1006.44 ± 2.2
291.25 K, x1 = 0.266	997.918 ± 2.2
291.25 K, x1 = 0.275	994.413 ± 2.2
291.25 K, x1 = 0.3	985.014 ± 2.1
291.25 K, x1 = 0.325	980.203 ± 2.1
291.25 K, x1 = 0.338	980.22 ± 2.1
291.25 K, x1 = 0.382	974.837 ± 2.1
291.25 K, x1 = 0.407	971.578 ± 2
291.25 K, x1 = 0.414	970.955 ± 2
291.25 K, x1 = 0.486	947.303 ± 2.3
291.25 K, x1 = 0.488	944.104 ± 2.2
291.25 K, x1 = 0.573	901.031 ± 1.9
291.25 K, x1 = 0.587	897.388 ± 1.9
291.25 K, x1 = 0.615	890.547 ± 1.9
291.26 K, x1 = 0.363	978.023 ± 2
291.26 K, x1 = 0.546	917.045 ± 2.4
291.35 K, x1 = 0.246	1006.32 ± 2.2
291.35 K, x1 = 0.275	994.289 ± 2.2
291.35 K, x1 = 0.382	972.169 ± 2.1
291.35 K, x1 = 0.407	969.156 ± 2.1
291.35 K, x1 = 0.414	968.504 ± 2.1
291.35 K, x1 = 0.486	943.014 ± 2.3
291.35 K, x1 = 0.488	939.641 ± 2.3
291.35 K, x1 = 0.573	900.922 ± 1.9
291.36 K, x1 = 0.266	997.796 ± 2.2
291.36 K, x1 = 0.3	984.888 ± 2.1
291.36 K, x1 = 0.325	976.768 ± 2.1
291.36 K, x1 = 0.338	976.695 ± 2.1
291.36 K, x1 = 0.363	976.137 ± 2.1
291.36 K, x1 = 0.546	910.024 ± 2.5
291.36 K, x1 = 0.587	897.278 ± 1.9
291.36 K, x1 = 0.615	890.441 ± 1.9
291.45 K, x1 = 0.246	1006.19 ± 2.2
291.45 K, x1 = 0.275	994.165 ± 2.2
291.45 K, x1 = 0.338	972.479 ± 2.2
291.45 K, x1 = 0.382	968.647 ± 2.1
291.45 K, x1 = 0.407	965.925 ± 2.1
291.45 K, x1 = 0.414	965.499 ± 2.1
291.45 K, x1 = 0.486	938.691 ± 2.2
291.45 K, x1 = 0.488	935.781 ± 2.2
291.45 K, x1 = 0.546	907.652 ± 1.9
291.45 K, x1 = 0.573	900.812 ± 1.9
291.45 K, x1 = 0.587	897.17 ± 1.9
291.45 K, x1 = 0.615	890.332 ± 1.9
291.46 K, x1 = 0.266	997.671 ± 2.2
291.46 K, x1 = 0.3	984.765 ± 2.1
291.46 K, x1 = 0.325	975.497 ± 2.1
291.46 K, x1 = 0.363	971.707 ± 2.2
291.55 K, x1 = 0.246	1006.07 ± 2.2
291.55 K, x1 = 0.275	994.042 ± 2.2
291.55 K, x1 = 0.382	965.717 ± 2.1
291.55 K, x1 = 0.407	961.145 ± 2.1
291.55 K, x1 = 0.414	961.374 ± 2.1
291.55 K, x1 = 0.486	933.844 ± 2.3
291.55 K, x1 = 0.488	932.33 ± 2.2
291.55 K, x1 = 0.573	900.7 ± 1.9
291.56 K, x1 = 0.266	997.549 ± 2.2
291.56 K, x1 = 0.3	984.639 ± 2.1
291.56 K, x1 = 0.325	975.358 ± 2.1
291.56 K, x1 = 0.338	970.561 ± 2.1
291.56 K, x1 = 0.363	967.75 ± 2.1
291.56 K, x1 = 0.546	907.531 ± 1.9
291.56 K, x1 = 0.587	897.059 ± 1.9
291.56 K, x1 = 0.615	890.227 ± 1.9
291.65 K, x1 = 0.246	1005.95 ± 2.2
291.65 K, x1 = 0.266	997.425 ± 2.2
291.65 K, x1 = 0.275	993.918 ± 2.2
291.65 K, x1 = 0.325	975.23 ± 2.1
291.65 K, x1 = 0.338	970.427 ± 2.1
291.65 K, x1 = 0.363	961.876 ± 2.1
291.65 K, x1 = 0.382	955.241 ± 2.1
291.65 K, x1 = 0.407	957.953 ± 2.1
291.65 K, x1 = 0.414	956.971 ± 2.2
291.65 K, x1 = 0.486	923.683 ± 2
291.65 K, x1 = 0.488	922.941 ± 2
291.65 K, x1 = 0.546	907.417 ± 1.9
291.65 K, x1 = 0.573	900.591 ± 1.9
291.65 K, x1 = 0.615	890.121 ± 1.9
291.66 K, x1 = 0.3	984.514 ± 2.1
291.66 K, x1 = 0.587	896.95 ± 1.9
291.75 K, x1 = 0.246	1005.83 ± 2.2
291.75 K, x1 = 0.266	997.302 ± 2.2
291.75 K, x1 = 0.275	993.795 ± 2.2
291.75 K, x1 = 0.3	984.391 ± 2.1
291.75 K, x1 = 0.325	975.108 ± 2.1
291.75 K, x1 = 0.338	970.303 ± 2.1
291.75 K, x1 = 0.363	961.743 ± 2.1
291.75 K, x1 = 0.382	955.25 ± 2.1
291.75 K, x1 = 0.414	944.629 ± 2.1
291.75 K, x1 = 0.486	923.534 ± 2
291.75 K, x1 = 0.488	922.803 ± 2
291.75 K, x1 = 0.546	907.305 ± 1.9
291.75 K, x1 = 0.573	900.482 ± 1.9
291.75 K, x1 = 0.615	890.018 ± 1.9
291.76 K, x1 = 0.407	947.126 ± 2
291.76 K, x1 = 0.587	896.844 ± 1.9
291.85 K, x1 = 0.246	1005.7 ± 2.2
291.85 K, x1 = 0.275	993.671 ± 2.2
291.85 K, x1 = 0.3	984.268 ± 2.1
291.85 K, x1 = 0.338	970.173 ± 2.1
291.85 K, x1 = 0.382	955.119 ± 2.1
291.85 K, x1 = 0.414	944.718 ± 2
291.85 K, x1 = 0.486	923.411 ± 2
291.85 K, x1 = 0.573	900.371 ± 1.9
291.85 K, x1 = 0.615	889.909 ± 1.9
291.86 K, x1 = 0.266	997.179 ± 2.2

— the NIST ThermoML archive (doi:10.1016/j.jct.2018.08.035)
